We go through one molecule from patent publication US20240342148A1, “METHODS OF TREATING FACIOSCAPULOHUMERAL MUSCULAR DYSTROPHY WITH LOSMAPIMOD” (Fulcrum Therapeutics, Inc., priority 2021, published 2024).

In assay [1] the test system is subjects with FSHD. As to the kind of experiment: FSHD-TUG. The arrangement: species or system human. Particulars: in vivo. The protocol:
TUG assessments were performed at all visits, except for Wk16. The TUG test is a simple test that is used to assess a subject's mobility and requires both static and dynamic balance. TUG is a validated instrument that measures the time that a person takes to rise from a chair, walk 3 meters, turn around, walk back to the chair, and sit down. Subjects used their regular footwear, and their customary walking aid (no walkers allowed). Patients were also timed in a modified test (FSHD TUG), where they started from a supine position, then sat up, completed the TUG, and lay down again.

For a further assay, the system named is subjects with FSHD1. The experiment in a line: Muscle ultrasound echogenicity, open-label study in FSHD1. The format is in vivo, human. The protocol: Fourteen subjects age 18 to 65 years with genetically confirmed FSHD1, clinical severity score of 2 to 4 (range 0-5) and MRI-eligible skeletal muscles for needle biopsy received open-label 15 mg twice daily losmapimod for 52 weeks with the primary objective of safety. Assessments included safety, MRI, muscle ultrasound (US), clinical outcomes, and PROs. US was performed on 7 muscles bilaterally using a standardized protocol. US echointensity was expressed as a z-score relative to matched healthy controls, with abnormal being defined as >2.

In assay [2] the test system is subjects with FSHD. The experiment in a line: Hand-held dynamometry, maximum voluntary isometric contraction (MVICT). Type of assay: in vivo, human. The protocol:
Quantitative isometric dynamometry strength assessments were performed at all visits, except for Week 16. The MicroFET2 hand-held dynamometer was used to measure strength in the bilateral shoulders, elbow flexors and extensors, and ankle dorsiflexors. The Jamar Plus Digital Hand Dynamometer was used to measure bilateral grip strengths. Standard physical therapy techniques were used. Assessment of maximum voluntary isometric contraction (MVICT) was conducted with a hand-held dynamometer.

The subject of assay [3] is subjects with FSHD. The experiment in a line: Reachable workspace (RWS) relative surface area, RCT. The format is in vivo, human. The protocol: Continuous secondary and exploratory efficacy endpoints with 2 or more postbaseline follow-ups were analyzed using a mixed-effects model for repeated measures (MMRM), with change from baseline as the dependent variable, and treatment group, visit, treatment group-by-visit interaction, and FSHD repeat number category as fixed effects, and baseline value as a covariate. An unstructured covariance matrix was used to model the correlations among repeated measurements within each subject. The Kenward-Roger approximation was used to estimate denominator degrees of freedom. The RWS RSA score was also analyzed using a linear mixed-effects model, with treatment group as a fixed effect, and intercept, time and treatment group-by-time interaction as random effects, and with adjustment for FSHD repeat number category and region (USA, Canada, and EU). An unstructured covariance matrix was used. The RWS was performed at all visits, except for Week 16. It uses a single, 3D sensor-based system (Microsoft […]) that can unobtrusively detect subjects' RWS and reflects individual global upper extremity (UE) function, including shoulder and proximal arm. RWS has high reliability, repeatability, face validity, feasibility, sensitivity to change, and promise as a clinical outcome assessment (COA) for FSHD and other neuromuscular disorders. During the evaluation, patients were seated in front of the Microsoft […] sensor and underwent a standardized UE movement protocol while looking at a TV monitor. The evaluation was performed with and without 500 g weights two times per visit. All sites were provided and trained with the same standardized software and hardware by the sponsor. A central reader was responsible for training, quality control, data analysis, and standardization of the RWS across all sites in the study.

In another assay the test system is patients with FSHD1. The experiment in a line: Wearable sensor (Actimyo) physical activity, open label study. Particulars: over 1 year treatment; Mild or Upper group compared to Lower or Both group. Type of assay: in vivo, human. The protocol:
This study evaluated feasibility to monitor daily activity and assess functional outcomes using wearable sensor devices in an open label study (OLS) of losmapimod in facioscapulohumeral muscular dystrophy (FSHD). 14 patients with FSHD1 received 15 mg losmapimod twice per day for a 52 week open label treatment period.
Feasibility was measured by the reliability of the data over time and amount of background noise. The secondary objective was patients' compliance with using the wearable device.
Upper limb and lower limb mobility were evaluated with “Actimyo” made by Sysnav. Actimyo quantifies movements of patients with neuromuscular disorders such as Duchenne muscular dystrophy (DMD), Spinal amyotrophy (SMA), Parkinson's and records activity based on magneto-inertial navigation. Raw data from the sensors are loaded on to the internal memory of the docking station/charging unit, and transmitted daily via an internet connection to a remote storage platform. Participants are provided with two watch like sensors to measure movements: On the ankle for lower extremity movements like gait; and On the wrist for upper extremity movements like mobility. Two kinds of movements were evaluated: Free living movement, which was recorded by wearing two devices all day (12-16 hours); and Imposed movements (2 times per day), which were a set of movements evaluated twice daily.

In assay [4] the test system is subjects with FSHD. As to the kind of experiment: Patients' Global Impression of Change (PGIC). The format is in vivo, human. Particulars: Wk48. The protocol: The Patients' Global Impression of Change (PGIC) Questionnaire was administered at every visit after baseline. Subjects were asked to rate their overall status since the start of the study on a scale from 1 (very much improved) to 7 (very much worse). The PGIC scale has been validated in several other indications and is recommended by the FDA for use as a meaningful measure of within-patient change.

The mark [5] stands for this setting: open-label 15 mg twice daily, 52 weeks.

Each structure is given as a SMILES string. Several values for one entry are separate records, joined by “and”; a condition that tells them apart may be missing. Equal values may be shown once.

On to `Cc1c(F)cc(C(=O)NC2CC2)cc1-c1ccc(C(=O)NCC(C)(C)C)cn1` [losmapimod, 6-(5-cyclopropylcarbamoyl-3-fluoro-2-methyl-phenyl)-N-(2,2-dimethylpropyl-)-nicotinamide], for which the FSHD-TUG vs placebo entry in the assay on subjects with FSHD [1] was “no difference”. Also, in the assay on subjects with FSHD1 (setting [5]), the “Mean (SD) change from baseline in echogenicity of all muscles” value was -0.17 (0.9) z-score; the “Mean (SD) change from baseline in echogenicity, lower extremities” value is reported as −0.13 (1.0) z-score; the “Mean (SD) change from baseline in echogenicity, upper extremity muscles” value was −0.32 (0.9) z-score. Besides, the “Distribution of echogenicity z-scores of muscles at baseline versus the last visit” value with subjects with FSHD1 (z-score classes <2, 2-4, 4-6, >6) is reported as “stayed the same or decreased”. For the same molecule, in the assay with subjects with FSHD [2] (Wk48, post-hoc), the “MVICT strength change, ankle dorsiflexors, left ankle” value came out at 27.17%; the “MVICT strength change, ankle dorsiflexors, right ankle” value stood at 12.72%; the “MVICT strength change, shoulder abductors, non-dominant shoulder” value was determined as 17.85%. Further, the “MVICT strength change, shoulder abductors, dominant shoulder” value in the assay on subjects with FSHD [2] (Wk48, post-hoc, ns) is −3.79%. In the assay with subjects with FSHD [2] (Wk48, post-hoc, p<0.01), the “MVICT difference vs placebo, non-dominant shoulder” value was 34.89. Further, in the assay on subjects with FSHD [2] (Wk48, post-hoc, p<0.05), the “MVICT difference vs placebo, right ankle” value is 38.39. The “MVICT difference vs placebo, left ankle” value with subjects with FSHD [2] (Wk48, post-hoc, p=0.11) was determined as 37.37. Besides, the “Average or MVICT in other muscle groups (bilateral hand grip, elbow flexors or extensors)” value in the assay on subjects with FSHD [2] (vs placebo) is on record as “No difference”. Also, in the assay on subjects with FSHD [3] (0-1.25 scale), the “RSA change, dominant arm” value is on record as 0.019 and the “RSA change, non-dominant arm” value amounted to 0.021. Further, the “RSA difference vs placebo, non-dominant arm” value with subjects with FSHD [3] (0-1.25 scale, 95% CI 0.0007, 0.09, p<0.05) worked out at 0.045. Further, in the assay on subjects with FSHD [3] (0-1.25 scale, 95% CI 0.017, 0.118, p=0.01), the “RSA difference vs placebo, dominant arm” value is on record as 0.067. Further, the “Annualized rate of change in total RSA, non-dominant, annual percent change” value with subjects with FSHD [3] (weighted assessment, p=0.01) worked out at 4.88%. Further, the “Annualized rate of change in total RSA, dominant, annual percent change” value in the assay with subjects with FSHD [3] (weighted assessment, p=0.07) came out at 0.28%. Besides, the “Physical function as measured by gait velocity” value in the assay on patients with FSHD1 was “tends to increase”. In addition, in the assay with subjects with FSHD [4], the “Patients reporting feeling very much worse on PGIC (6-7 in Likert scale)” value is on record as “No losmapimod treated patients”; the “Patients reporting improvement on PGIC (1-3 in Likert scale)” value was 27.5% and ~20%. For the same molecule, the “PGIC difference compared to placebo” value in the assay with subjects with FSHD [4] (1-7 Likert scale, p=0.02) is 0.58.
